Measurements as given in paper PMC10373478, “Exploration and Exploitation Approaches Based on Generative Machine Learning to Identify Potent Small Molecule Inhibitors of α-Synuclein Secondary Nucleation” (Journal of Chemical Theory and Computation, 2023).

Target: T1, α-synuclein (αS) (Homo sapiens, UniProt P37840)
T1 construct: gene SNCA
Assay: seeded aggregation kinetics (ThT fluorescence) at […] compound
Type: biochemical

SMILES: CN1C(C(=O)Nc2ccccn2)=C(O)c2sc(Cl)cc2S1(=O)=O [lornoxicam]
- seeded aggregation kinetics (ThT fluorescence) at 25 and 50 μM compound: The potency of lornoxicam was mild in comparison to hits found previously, but it was nonetheless observable
